Experimental findings from patent US9351978B2, “Neurogenesis screening method and uses thereof” (Mead Johnson Nutrition Company, priority 2012, dated 2016) are described below.

One assay has as its system hNSCs. The assay is described as follows: neurogenesis of hNSCs, morphological changes under inverted fluorescent microscopy. The class given is cell-based, human. To be noted: 72 hours. The protocol:
Briefly, hNSCs were purchased from Millipore, Bellerica, Mass., U.S.A., with genetic modification to constitutively express green fluorescent protein (“GFP”). The hNSCs were cultured on laminin coated plates as recommended by the manufacturer. Both laminin and DEME/F12 were obtained from Millipore. Laminin was diluted with DMEM/F12 to 20 μg/mL. 10 ml of diluted laminin solution was added to 10 cm tissue culture dish. Then the culture dish was incubated in a 37° C., 5% CO2 incubator overnight. Just before use, the laminin solution was aspirated and rinsed once with sterile DPBS solution. hNSCs were cultured in the ReNcell NSC maintenance medium (Millipore) supplied with 20 ng/mL bFGF and 20 ng/mL EGF in a 37° C., 5% CO2 incubator. Medium was exchanged with fresh medium containing bFGF and EGF every other day thereafter. The cells reached 80% confluence 2 to 3 days after this step.
After hNSCs reach 80% confluence, hNSCs were ready for the differentiation experiment. Before seeding, a 96-well plate was freshly coated with 20 μg/mL laminin solution followed by a brief DPBS rinse as described above. Culture medium was removed carefully and hNSCs were dissociated within 3 ml Accutase (Millipore) in a 37° C., 5% CO2 incubator for 3 minutes. Then 5 ml of ReNcell NSC maintenance medium (Millipore) supplied with 20 ng/mL bFGF and 20 ng/mL EGF were added. The cell suspension was then transferred a sterile 15 ml conical tube and the cells were pelleted by the centrifugation at 300×g for 5 minutes. Supernatant was removed. 2 ml medium was then applied to the tube and hNSCs was resuspended thoroughly. The hNSCs were seeded on a 96-well plate at a density of 1×10^4 cell/ml (1000 cells/well, 100 μl/well).
After attaching to the culture surface, the culture medium was switched to serum-free differentiation medium in the presence of cholesterol, or DHA, or no treatment. […]

The next assay relates to hADSCs. The assay is described as follows: neurogenesis of hADSCs, neuronal morphology under phase contrast microscopy. The class given is cell-based, human. The method, then: hADSCs were purchased from Invitrogen, also known as Life Technologies, of Carlsbad, Calif., U.S.A., and were cultured as near confluent monolayers in 100 mm culture plates within a maintenance media consisting of Complete MesenPro RS medium with growth supplement and L-glutamine obtained from Invitrogen®. The process of culturing, passage, and seeding the hADSCs is described below.
The subculture of hADSCs was performed when cell culture reached confluence. To passage hADSCs, the following procedure is used: i) aspirate the Complete MesenPRO RS medium from the cells; ii) rinse the surface area of the cell layer with Dulbecco's phosphate buffered saline (DBPS) buffer by adding the DPBS to the side of the vessel opposite the attached cell layer and rocking the vessel back and forth several times; iii) remove the DPBS by aspiration and discard; iv) detach the cells by adding a sufficient volume of pre-warmed trypsin-EDTA solution without phenol red to cover the cell layer; v) incubate at 37° C. for approximately 7 minutes; vi) observe the cells under a microscope to determine if additional incubation is needed; vii) add 3 mL of the maintenance media to the plate, mix the cell suspension, add the suspension to a 15 mL centrifuge tube and centrifuge at 210 g for 5 minutes; viii) determine the total number of cells and percent viability using a hemacytometer; ix) add Complete MesenPRO RS medium to each vessel so that the final culture volume is 0.2 mL-0.5 mL per cm^2; x) seed the cells by adding the appropriate volume of cells to each vessel and incubate at 37° C., 5% CO2 and 90% humidity; and xi) three or four days after seeding, completely remove the medium and replace with an equal volume of Complete MesenPRO RS medium.
Before seeding the passaged hADSCs on fresh culture plates, the surfaces of the culture ware are washed with sterile DPBS solution three times, followed by multiple rinses with sterile water. The first layer of coating is poly-L-ornithine. […]

For `CC(C)CCC[C@@H](C)[C@H]1CC[C@H]2[C@@H]3CC=C4C[C@@H](O)CC[C@]4(C)[C@H]3CC[C@]12C` [cholesterol], in the assay with hNSCs (25 μM), the “morphology of hNSCs observed” value is “shrinking cellular bodies, projecting neurities and were developing dendrites”. Also, in the assay with hNSCs (25 μM, serum-free differentiation medium), the “neurogenesis of hNSCs compared to no treatment” value is given as “dramatically promoted neurogenesis”. In addition, in the assay on hNSCs (cholesterol 25 μM compared with DHA at 20 μM), the “length of neurite outgrowth” value was “comparable to DHA”. The “effect to enhance neurogenesis (neuronal morphology displayed by the hADSCs)” value in the assay with hADSCs (5 μM, among the concentrations tested, phase contrast microscopy at 24, 48 and 96 hours, FIG. 2B) is reported as “strongest effect to enhance neurogenesis”. In the assay with hADSCs (addition of cholesterol vs no treatment), the “neurogenesis compared to the negative control” value is “promoted neurogenesis when compared to the negative control”. Further, the “morphology of treated hADSCs (outgrowth)” value with hADSCs (hADSCs treated with cholesterol, FIG. 2B) is “long outgrowth with some branching”.
